Measurements reported in US6258547A, “Nucleic acid encoding amp-activated protein kinase” (Zeneca Limited, priority 1993, dated 2001).

Assays:
[1] = system: AMP-activated protein kinase (AMPK) purified from rat liver; conditions: cited from earlier work
[2] = system: AMP-activated protein kinase (AMPK) partially purified from rat liver (DEAE-Sepharose fraction); type: biochemical; conditions: 200 µM
[3] = target: T1, Saccharomyces cerevisiae SNF1 protein kinase, wild type (Saccharomyces cerevisiae, UniProt P06782+P12904); test: SAMS peptide phosphorylation assay in yeast extracts; type: biochemical; conditions: over a range of AMP concentrations; data not shown
T1 construct: We were able to detect kinase activity using this assay in wild type yeast extracts; endogenous in cells; host or cells: wild type Saccharomyces cerevisiae extract
T1 sequence (P06782 1-633): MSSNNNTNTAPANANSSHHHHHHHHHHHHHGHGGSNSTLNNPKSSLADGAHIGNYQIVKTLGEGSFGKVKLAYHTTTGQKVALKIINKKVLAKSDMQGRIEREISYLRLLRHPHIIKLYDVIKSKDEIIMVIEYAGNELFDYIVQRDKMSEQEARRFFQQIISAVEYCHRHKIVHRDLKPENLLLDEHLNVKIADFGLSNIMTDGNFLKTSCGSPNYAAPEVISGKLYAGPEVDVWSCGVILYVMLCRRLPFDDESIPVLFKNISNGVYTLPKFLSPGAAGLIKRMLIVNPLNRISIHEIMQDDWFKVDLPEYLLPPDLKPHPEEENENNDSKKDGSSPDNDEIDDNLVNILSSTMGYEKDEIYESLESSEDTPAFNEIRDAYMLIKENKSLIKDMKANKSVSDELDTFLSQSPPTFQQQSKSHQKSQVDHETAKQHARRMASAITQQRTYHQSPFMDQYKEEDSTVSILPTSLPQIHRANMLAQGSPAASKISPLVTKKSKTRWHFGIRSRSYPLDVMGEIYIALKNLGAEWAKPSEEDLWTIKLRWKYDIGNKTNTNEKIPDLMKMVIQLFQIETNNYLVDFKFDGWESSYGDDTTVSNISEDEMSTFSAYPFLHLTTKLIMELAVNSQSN
T1 sequence (P12904 1-322): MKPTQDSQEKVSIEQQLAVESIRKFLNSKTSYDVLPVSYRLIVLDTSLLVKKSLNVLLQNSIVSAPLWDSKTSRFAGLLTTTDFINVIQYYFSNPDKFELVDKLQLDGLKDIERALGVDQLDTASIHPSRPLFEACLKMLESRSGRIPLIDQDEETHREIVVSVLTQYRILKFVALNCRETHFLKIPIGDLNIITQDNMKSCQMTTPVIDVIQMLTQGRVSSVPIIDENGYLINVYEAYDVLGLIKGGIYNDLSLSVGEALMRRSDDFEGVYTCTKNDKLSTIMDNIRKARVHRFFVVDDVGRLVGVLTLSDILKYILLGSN
Source text: In Saccharomyces cerevisiae SNF1 protein kinase activity is essential for release of genes from glucose repression. […] The amino acid sequences of SNF1 and AMPK are 46% identical. We investigated whether SNF1 and AMPK shared any functional similarity in addition to their primary sequence homology. […] We believe that this polypeptide is likely to be involved in the regulation of mammalian AMPK in the same way that SNF4 regulates SNF1 function in yeast. […] The apparent Km of SAMS peptide for SNF1 (20 μM) was similar to that of the AMPK (data not shown).

In the case of Nc1ncnc2c1ncn2[C@@H]1O[C@H](COP(=O)(O)O)[C@@H](O)[C@H]1O [AMP], the “activation of AMPK by AMP” value [1] is given as “approximately 5 fold”, the “stimulation of AMPK activity by AMP” value [2] is given as “approximately 3 fold” and the “activation of SNF1 by AMP” value [3] is given as “unable to detect any significant activation”.
